Results reported in the supplement of paper PMC3974653.
Where a name gives a salt, the structure may show the parent alone.

Test system: MTT (mouse pheochromocytoma)
Assay: IC50 of cell viability (ATP content)
Settings: (24 or 48 h)
Method in brief: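 MTT mouse pheochromocytoma cells (5 µl of 200,000 cells/ml per well, white 1536-well plates, DMEM with 5% FBS and 1% horse serum) were cultured overnight at 37°C, 5% CO2. They then received 23 nl library compound in DMSO by pintool at 8 concentrations (final 0.5 nM to 46 µM) for 24 or 48 hrs. CellTiter-Glo ATP luminescence was read after 15 minutes. Signals were normalised to positive-control (100% inhibition) and DMSO (0%) wells, and IC50 came from a four-parameter logistic fit.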

| Structure (SMILES) | IC50 of cell viability [µM] |
| --- | --- |
| CC(=O)NCCCS(=O)(=O)[O-] [ACAMPROSATE CALCIUM] | > 46 |
| CCN(CC)CCNC(=O)c1ccc(NC(C)=O)cc1.Cl [ACECAINIDE HYDROCHLORIDE] | > 46 |
| CC(=O)OC1CN2CCC1CC2 (centres undefined) [ACECLIDINE] | > 46 |
| CC(=O)Nc1cc([As](=O)(O)O)ccc1O [ACETARSOL] | > 46 |
| CC(=O)Nc1c(I)cc(I)c(C(=O)O)c1I [ACETRIAZOIC ACID] | > 46 |
| CC(=O)N[C@@H]1C(O)OC(CO)C(O)C1O (some centres undefined) [ACETYLGLUCOSAMINE] | > 46 |
| CCC(C(=O)NC(=O)NC(C)=O)c1ccccc1 (centres undefined) [ACETYLPHENETURIDE (CRAMPOL)] | > 46 |
| CC(=O)NCCCCCC(=O)O [ACEXAMIC ACID] | > 46 |
| CC(=O)NC1[C@H](O)C[C@@](O)(C(=O)O)O[C@H]1[C@H](O)[C@H](O)CO (some centres undefined) [ACIDUM ACENEURAMICUM] | > 46 |
| COc1ccc(C(=O)/C(Br)=C/C(=O)O)cc1 [ACIDUM BROMEBRICUM] | > 46 |
| COc1cc(C(=O)NCCCCCC(=O)O)cc(OC)c1OC [ACIDUM CAPOBENICUM] | > 46 |
| COc1cc(C)c(/C=C/C(C)=C/C=C/C(C)=C/C(=O)O)c(C)c1C [ACITRETIN] | > 46 |
| N[C@H]([C@@H]1C\C(=N/O1)Cl)C(O)=O [ACIVICIN] | > 46 |
| CCN1C[C@]2(COC)[C@H](O)C[C@H](OC)[C@]34C1C([C@H](OC)[C@H]23)[C@]1(OC(C)=O)[C@H]2[C@@H](OC(=O)c3ccccc3)[C@](O)(C[C@H]24)[C@@H](OC)[C@@H]1O [ACONITINE] | > 46 |
| CCOc1ccc2nc3cc(N)ccc3c(N)c2c1 [ACRINOL] | > 46 |
| Nc1ncnc2c1ncn2[C@@H]1O[C@H](COP(=O)(O)OP(=O)(O)OP(=O)(O)O)[C@@H](O)[C@H]1O [ADENOSINE TRIPHOSPHATE] | > 46 |
| Nc1ncnc2c1ncn2[C@@H]1O[C@H](CO)[C@@H](O)[C@H]1O [ADENOSINE] | > 46 |
| CCN(CC)CCOC(=O)C(c1ccccc1)c1ccccc1.Cl [ADIPHENINE HYDROCHLORIDE] | > 46 |
| O=C(C[S+]([O-])C(c1ccccc1)c1ccccc1)NO (centres undefined) [ADRAFINILUM] | > 46 |
| CCN(CC)CC1CCCCN1CC(=O)N1c2ccccc2C(=O)Nc2cccnc21 (centres undefined) [AF-DX 116] | > 46 |
| CCCCCCCCCCCCCCCCC(C(=O)O)C(O)(CC(=O)O)C(=O)O (centres undefined) [AGARICINUM] | > 46 |
| NC(=O)c1ncn(C2OC(CO)C(O)C2O)c1N (centres undefined) [AICAR] | > 46 |
| C[C@H](N)C(=O)N[C@@H](C)P(=O)(O)O [ALAFOSFALINUM] | > 46 |
| CC(N)C(=O)OC(C)(C)Cc1ccc(Cl)cc1 (centres undefined) [ALAPROCLATE] | > 46 |

| Structure (SMILES) | IC50 of cell viability [µM] |
| --- | --- |
| C=CCN1C(=O)C(CC(C)C)NC1=S (centres undefined) [ALBUTOINUM] | > 46 |
| O=C1c2ccccc2C(=O)c2c1ccc(O)c2O [ALIZARIN] | > 46 |
| NC12CC3CC(CC(C3)C1)C2 [AMANTIDINE] | > 46 |
| Nc1c(Br)cc(Br)cc1CNC1CCC(O)CC1 (centres undefined) [AMBROXOL HYDROCHLORIDE] | > 46 |
| O=C1NCN(c2ccccc2)C12CCN(CCCOc1ccc(F)cc1)CC2 [AMI-193] | > 46 |
| N=C(N)NC(=O)c1nc(Cl)c(N)nc1N [AMILORIDE] | > 46 |
| Cl.NCC(=O)CCC(=O)O [AMINOLEVULINIC ACID HYDROCHLORIDE] | > 46 |
| Nc1nccs1 [AMINOTHIAZOLE] | > 46 |
| C[N@+]1([O-])[C@@H]2C[C@H](OC(=O)[C@@H](CO)c3ccccc3)C[C@@H]1[C@H]1O[C@H]12 [AMINOXYSCOPOLAMINE HYDROBROMIDE] | > 46 |
| CCCCc1oc2ccccc2c1C(=O)c1cc(I)c(OCCN(CC)CC)c(I)c1 [AMIODARONE] | > 46 |
| Nc1nc(N)c(-c2ccccc2)s1 [AMIPHENAZOLUM] | > 46 |
| CN(C)CCCOC1C(C(O)CO)OC2OC(C)(C)O[C@@H]21.Cl (some centres undefined) [AMIPRILOSE] | > 46 |
| Cc1ccc(/N=C/N(C)/C=N/c2ccc(C)cc2C)c(C)c1 [AMITRAZ] | > 46 |
| CC(C)c1ccc2oc3nc(N)c(C(=O)O)cc3c(=O)c2c1 [AMLEXANOX] | > 46 |
| ClC1=CC\2=C(OC3=C(C=CC=C3)\N=C2N4CCNCC4)C=C1 [AMOXAPINE] | > 46 |
| C[C@H](N)Cc1ccccc1 [AMPHETAMINE ADIPATE] | > 46 |
| CCCCC/C(C=O)=C/c1ccccc1 [AMYL CINNAMAL] | > 46 |
| CCCCCc1ccc(C)cc1O [AMYLMETACRESOL] | > 46 |
| C=C1CCC2[C@](C)(CO)C(O)CC[C@]2(C)C1C/C=C1/C(=O)OCC1O (some centres undefined) [ANDROGRAPHOLIDE] | > 46 |
| C[C@]12CC[C@H]3[C@@H](CCC/4=C/C(=O)CC[C@]34C)[C@@H]1CCC2=O [ANDROSTENEDIONE] | > 46 |
| CC(=O)OCC(=O)[C@@]1(O)CCC2C3CCC4=CC(=O)CC[C@]4(C)C3=CC[C@@]21C (some centres undefined) [ANECORTAVE ACETATE] | > 46 |
| COc1ccc(-c2cc(=S)ss2)cc1 [ANETHOLE TRITHIONE] | > 46 |
| COc1ccc(C(=O)N2CCCC2=O)cc1 [ANIRACETAM] | > 46 |

More lines, now with the values ahead:

| IC50 of cell viability [µM] | Structure (SMILES) |
| --- | --- |
| > 46 | C\C1=C(/C)C(=O)\C(=C(\C)C1=O)CCCCC#CCCCC#CCO [AA-861] |
| > 46 | Nc1nc(NC2CC2)c2ncn([C@H]3C=C[C@@H](CO)C3)c2n1 [ABACAVIR SULFATE] |
| > 46 | CCN(CC)CCNC(C(=O)OCCC(C)C)c1ccccc1 (centres undefined) [ACAMYLOPHENINE HYDROCHLORIDE] |
| > 46 | CC(=O)O[C@@H]1C(=O)O[C@H]2[C@@H]1OC(=O)[C@@H]2OC(C)=O [ACEGLATONE] |
| > 46 | CC(=O)Nc1ccc(OC(=O)c2ccccc2O)cc1 [ACETAMINOSALOL] |
| > 46 | CC(=O)NO [ACETOHYDROXAMIC ACID] |
| > 46 | Cc1cccc(Nc2ncccc2C(=O)O)c1C [ACIDUM NIXYLICUM] |
| > 46 | O=C(O)COc1ccc(C(=O)c2cccs2)c(Cl)c1Cl [ACIDUM TIENILICUM] |
| > 46 | CC(C)(C)C(=O)OCOP(=O)(COCCn1cnc2c(N)ncnc21)OCOC(=O)C(C)(C)C [ADEFOVIR DIPIVOXIL] |
| > 46 | Nc1ncnc2c1ncn2[C@@H]1O[C@H](COP(=O)(O)O)[C@@H](O)[C@H]1O [ADENOSINE-5'-MONOPHOSPHATE (AMP)] |
| > 46 | CC(=O)NC(Cc1ccccc1)C(=O)O (centres undefined) [AFALANINUM] |
| > 46 | Cc1ccccc1N1C(=O)c2cc(N)ccc2N/C1=C\F [AFLOQUALONE] |
| > 46 | NC(=O)c1ccc([N+](=O)[O-])cc1Cl [AKLOMIDE] |
| > 46 | CC(=O)SC[C@@H](C)C(=O)N1CCC[C@H]1C(=O)N[C@@H](Cc1ccccc1)C(=O)O [ALACEPRIL] |
| > 46 | Cc1ccccc1C(=O)N1CC/C(=N/OS(=O)(=O)[O-])c2ccc(Cl)cc21 [ALILUSEM POTASSIUM] |
| > 46 | C=CCOc1cc(Cl)ccc1C(=O)NCCN(CC)CC [ALLOCLAMIDE HYDROCHLORIDE] |

| IC50 of cell viability [µM] | Structure (SMILES) |
| --- | --- |
| > 46 | CN(C)CCc1c[nH]c2ccc(C[S+](=O)([O-])N3CCCC3)cc12 [ALMOTRIPTAN] |
| > 46 | Cc1[nH]cnc1CN1CCc2c(c3ccccc3n2C)C1=O [ALOSETRON HYDROCHLORIDE] |
| > 46 | C=CCc1ccccc1OCC(O)CNC(C)C (centres undefined) [ALPRENOLOL] |
| > 46 | C=CCSCC1Nc2cc(Cl)c([S+](N)(=O)[O-])cc2[S+](=O)([O-])N1 (centres undefined) [ALTHIAZIDE] |
| > 46 | CC[N+](CC)(CCNC(=O)C(=O)NCC[N+](CC)(CC)Cc1ccccc1Cl)Cc1ccccc1Cl [AMBENONIUM] |
| > 46 | COC(c1ccccc1)(c1ccccc1)C(Oc1nc(C)cc(C)n1)C(=O)O (centres undefined) [AMBRISENTAN] |
| > 46 | CC(=O)OCC(=O)[C@@]12OC3(CCCC3)OC1CC4C5CCC/6=C/C(=O)/C=C\[C@@]6(C)[C@]5(F)C(O)C[C@@]24C (some centres undefined) [AMCINONIDE] |
| > 46 | Cc1c(C)n(CCN(C)C)c2ccc(C(=O)OCCN(C)C)cc12 [AMINDOCATUM] |
| > 46 | NCC(O)CC(=O)O (centres undefined) [AMINOHYDROXYBUTYRIC ACID] |
| > 46 | Nc1nc(N)c2nc(CNc3ccc(C(=O)NC(CCC(=O)O)C(=O)O)cc3)cnc2n1 (centres undefined) [AMINOPTERIN] |
| > 46 | CCN(CC)CCCC(C)Nc1cc(/C=C/c2ccccc2Cl)nc2cc(Cl)ccc12 (centres undefined) [AMINOQUINOLUM] |
| > 46 | Cc1cc(N)c2cc(NC(=O)Nc3ccc4nc(C)cc(N)c4c3)ccc2n1 [AMINOQUINURIDUM] |
| > 46 | CCOC(=O)C\1=C(COCCN)\N\C(=C(/C1C2=CC=CC=C2Cl)C(=O)OC)C.O[S+]([O-])(=O)C3=CC=CC=C3 (centres undefined) [AMLODIPINE BESYLATE] |
| > 46 | CCC(C)(C)OC(=O)N[C@@H](Cc1c[nH]c2ccccc12)C(=O)N[C@@H](CCSC)C(=O)N[C@@H](CC(=O)O)C(=O)N[C@@H](Cc1ccccc1)C(N)=O [AMOGASTRIN] |
| > 46 | CCC(C)(C)c1ccc(CC(C)CN2C[C@@H](C)O[C@@H](C)C2)cc1 (some centres undefined) [AMOROLFINE HYDROCHLORIDE] |
| > 46 | Oc1cn2c(n1)Nc1ccc(Cl)c(Cl)c1C2 [ANAGRELIDE HYDROCHLORIDE] |
